Measurements published in US12247004B2, “2-amino-N-(amino-oxo-aryl-lambda6-sulfanylidene)acetamide compounds and their therapeutic use” (Oxford Drug Design Limited, priority 2019, dated 2025).
In brackets after ≈: the same amount, converted by molar mass. Where a name gives a salt, the structure may show the parent alone. Read-outs that look alike come from different tables or passages of the source.

Columns and labels:
[1] = target: Leucyl-tRNA synthetase (LeuRS) (Escherichia coli (strain K12), UniProt P07813); experiment: Leucyl-tRNA synthetase enzyme inhibition (AMP-Glo; single point % inhibition at 100 μM and IC50); type: biochemical
Chain of Leucyl-tRNA synthetase (LeuRS) (P07813 whole entry, looked up): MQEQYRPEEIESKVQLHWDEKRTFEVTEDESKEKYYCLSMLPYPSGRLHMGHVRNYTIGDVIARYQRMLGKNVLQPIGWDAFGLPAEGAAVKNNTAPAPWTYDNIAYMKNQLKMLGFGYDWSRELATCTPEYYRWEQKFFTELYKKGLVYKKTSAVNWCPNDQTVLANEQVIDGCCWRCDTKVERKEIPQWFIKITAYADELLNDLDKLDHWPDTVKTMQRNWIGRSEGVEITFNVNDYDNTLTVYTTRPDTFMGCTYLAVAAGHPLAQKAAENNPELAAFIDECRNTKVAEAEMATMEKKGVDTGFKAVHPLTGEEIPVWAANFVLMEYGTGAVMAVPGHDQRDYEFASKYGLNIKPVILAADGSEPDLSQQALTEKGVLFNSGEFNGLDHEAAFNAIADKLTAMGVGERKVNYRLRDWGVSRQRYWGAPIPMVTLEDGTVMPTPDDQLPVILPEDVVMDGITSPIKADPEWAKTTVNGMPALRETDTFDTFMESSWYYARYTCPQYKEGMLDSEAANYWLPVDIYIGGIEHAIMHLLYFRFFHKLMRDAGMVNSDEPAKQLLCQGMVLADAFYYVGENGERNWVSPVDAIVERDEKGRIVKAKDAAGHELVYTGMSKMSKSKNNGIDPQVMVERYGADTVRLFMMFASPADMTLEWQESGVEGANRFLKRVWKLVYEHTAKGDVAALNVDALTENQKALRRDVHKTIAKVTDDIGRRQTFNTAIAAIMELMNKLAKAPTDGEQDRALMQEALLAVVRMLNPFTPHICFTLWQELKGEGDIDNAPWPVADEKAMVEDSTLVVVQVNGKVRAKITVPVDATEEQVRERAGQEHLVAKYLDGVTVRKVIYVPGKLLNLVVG

[2] = system: bacteria (ATCC reference strains); experiment: Antibacterial activity, MIC by broth micro-dilution (CLSI)
[3] = Human cell viability / cytotoxicity (CellTiter-Glo, 24 hours); type: cell-based; conditions: human, HepG2 cells (ATCC HB-8065); HepG2 ATCC HB-8065, 24 hours; read-out: Cytotoxicity in HepG2 ATCC HB-8065 Cell Line, IC50
Procedure: Study 3—Human Cell Viability
Compounds were assessed for potential non-specific cytotoxic effects against a human hepatic cell line (HepG2 ATCC HB-8065). 96-well plates were seeded with HepG2 cells in concentration of 15,000 cells per well in 100 μL of MEM growth media completed with 1% NEAA and 1% sodium pyruvate. Border wells were filled with 100 μL of sterile PBS. Two days upon cells incubation, the compounds were added. Compound dilutions were prepared in 96-well V-bottom plate in pure DMSO. Growth media from 5 plates were aspirated and replaced with 98.7 μL of fresh growth media. 1.28 μL of compounds prepared in V-bottom plates were transferred with multichannel pipette into test plates (78.1× dilution). Final DMSO concentration was 1.28% per well. In control wells, 1.28 μL of DMSO was added in 98.7 μL of media. Compounds were tested in duplicates. Cells were incubated with compounds for 24 hours when cell viability was assessed by measuring ATP levels. ATP levels were measured by adding 50 μL of CellTiter-Glo reagent to each well and after 5 minutes of incubation luminescence was measured with SpectraMax i3. The potential effect of tested compounds on cell viability was determined by comparing the signal obtained in presence of different concentrations of the compounds with those obtained in the presence of DMSO only. The potential effects were then calculated and presented as IC50 values (μg/mL).

[4] = E. coli LeuRS, read-out: Enzyme Inhibition - IC50, E. coli LeuRS
[5] = Acinetobacter baumannii, read-out: Antibacterial Activity (MIC), E = A. baumannii B1931
[6] = Enterobacter cloacae, read-out: Antibacterial Activity (MIC), B = Enterobacter cloacae B1966
[7] = Escherichia coli, ATCC25922, read-out: Antibacterial Activity (MIC), A = E. coli ATCC 25922
[8] = Haemophilus influenzae, ATCC49247, read-out: Antibacterial Activity (MIC), F = H. influenzae ATCC 49247
[9] = Klebsiella pneumoniae, ATCC700603, read-out: Antibacterial Activity (MIC), C = K. pneumoniae ATCC 700603
[10] = Pseudomonas aeruginosa, ATCC27853, read-out: Antibacterial Activity (MIC), D = P. aeruginosa ATCC 27853
[11] = Escherichia coli, BAA2469, read-out: Antibacterial Activity (MIC), G = E. coli BAA-2469

Compound | IC50 [1, 4] [µM] | MIC [2, 5] [mg/L] | MIC [2, 6] [mg/L] | MIC [2, 7] [mg/L] | MIC [2, 8] [mg/L] | MIC [2, 9] [mg/L] | MIC [2, 10] [mg/L] | IC50 at 24 h [3] [mg/L] | IC50 [1] [µM] | MIC [2, 11] [mg/L]
CC(C)C[C@H](N)C(=O)N=S(N)(=O)c1cccc(Cl)c1F (stereo partly drawn) [ANASIA-001, (2S)-2-amino-N-(amino(3-chloro-2-fluorophenyl)(oxo)-λ6-sulfanylidene)-4-methylpentanamide 2,2,2-trifluoroacetate] | 0.429 | > 64 | > 64 | 32 (≈ 99.4 µM) | > 64 | > 64 | > 64 | > 64 | – | –
CC(C)C[C@H](N)C(=O)N=[S@](N)(=O)c1cccc(Cl)c1F.Cl [ANASIA-001-1] | – | > 64 | > 64 | 16 | 32 | > 64 | > 64 | > 64 | 0.535 | –
CC(C)C[C@H](N)C(=O)N=[S@](N)(=O)c1cccc(Cl)c1.Cl [ANASIA-002-1] | – | 32 | 8 | 1 | 2 | 32 | > 64 | > 64 | 0.0275 | 4
CC(C)C[C@H](N)C(=O)N=[S@@](N)(=O)c1cccc(Cl)c1.Cl [ANASIA-002-2] | 1.05 | > 64 | > 64 | 64 | > 64 | > 64 | > 64 | > 64 | – | –
CC(C)C[C@H](N)C(=O)N=S(N)(=O)c1cccc(Cl)c1 (stereo partly shown) [ANASIA-002] | 0.11 | > 45.3 | > 45.3 | 2.83 (≈ 9.31 µM) | 5.66 (≈ 18.6 µM) | > 22.6 | > 64 | > 64 | – | –
CC(C)C[C@H](N)C(=O)N=[S@](N)(=O)c1ccccc1.Cl [ANASIA-003-1, (S)-2-amino-N—((S)-amino(oxo)(phenyl)-λ6-sulfanylidene)-4-methylpentanamide hydrochloride] | 0.0615 | 64 | 16 | 4 | 8 | 16 | 64 | > 64 | – | –
CC(C)C[C@H](N)C(=O)N=S(N)(=O)c1ccccc1 (stereo partly shown) [ANASIA-003] | 0.0929 | 32 (≈ 119 µM) | 16 (≈ 59.4 µM) | 2.83 (≈ 10.5 µM) | 16 (≈ 59.4 µM) | 8 (≈ 29.7 µM) | 50.8 (≈ 189 µM) | > 64 | – | –
Cc1csc(S(N)(=O)=NC(=O)[C@@H](N)CC(C)C)n1 (stereo partly drawn) [ANASIA-004, (2S)-2-amino-N-(amino(4-methylthiazol-2-yl)(oxo)-λ6-sulfanylidene)-4-methyl pentanamide hydrochloride] | 0.0916 | 64 | > 64 | 16 | 8 | > 64 | 64 | > 64 | – | –
Cc1cccc([S@](N)(=O)=NC(=O)[C@@H](N)CC(C)C)c1 [ANASIA-005-2] | 0.151 | > 64 | 64 (≈ 226 µM) | 8 (≈ 28.2 µM) | 16 (≈ 56.5 µM) | > 64 | > 64 | > 64 | – | 32 (≈ 113 µM)
Cc1cccc(S(N)(=O)=NC(=O)[C@@H](N)CC(C)C)c1 (stereo partly shown) [ANASIA-005] | 0.381 | 64 (≈ 226 µM) | 32 (≈ 113 µM) | 8 (≈ 28.2 µM) | 32 (≈ 113 µM) | 32 (≈ 113 µM) | > 64 | > 64 | – | –
CC(C)C[C@H](N)C(=O)N=S(N)(=O)c1cccnc1 (stereo partly shown) [ANASIA-006] | 0.708 | > 64 | > 64 | 64 (≈ 237 µM) | > 64 | > 64 | > 64 | > 64 | – | –
CC(C)C[C@H](N)C(=O)N=[S@](N)(=O)c1ccsc1.Cl [ANASIA-008-1] | – | 32 | 8 | 2 | 4 | 8 | 32 | > 64 | 0.0306 | –
CC(C)C[C@H](N)C(=O)N=S(N)(=O)c1ccsc1 (stereo partly shown) [ANASIA-008] | 0.144 | 32 (≈ 116 µM) | 16 (≈ 58.1 µM) | 2 (≈ 7.26 µM) | 16 (≈ 58.1 µM) | 8 (≈ 29 µM) | 32 (≈ 116 µM) | > 64 | – | –
CC(C)C[C@H](N)C(=O)N=[S@@](N)(=O)c1ccc(Cl)s1 [ANASIA-009-2] | 0.149 | 64 (≈ 207 µM) | 32 (≈ 103 µM) | 4 (≈ 12.9 µM) | 8 (≈ 25.8 µM) | 32 (≈ 103 µM) | > 64 | > 64 | – | –
CC(C)C[C@H](N)C(=O)N=[S@](N)(=O)c1cccc2ccccc12 [ANASIA-016-1] | – | – | – | – | – | – | – | > 64 | 2.2 | –
CC(C)C[C@H](N)C(=O)N=[S@@](N)(=O)c1cccc2ccccc12 [ANASIA-016-2] | 5.56 | – | – | – | – | – | – | > 64 | – | –
CC(C)C[C@H](N)C(=O)N=S(N)(=O)c1cccc2ccccc12 (stereo partly shown) [ANASIA-016] | 3.04 | – | – | – | – | – | – | > 64 | – | –
CC(C)C[C@H](N)C(=O)N=[S@](N)(=O)c1cccc(-c2ccccc2)c1 [ANASIA-018-1] | – | – | – | – | – | – | – | > 64 | 0.223 | –
CC(C)C[C@H](N)C(=O)N=[S@@](N)(=O)c1cccc(-c2ccccc2)c1 [ANASIA-018-2] | 2.97 | – | – | – | – | – | – | > 64 | – | –
